Assay results published in the supplement of paper PMC10307832.

Tests used:
Test in all cases: relative viability (nuclei count vs DMSO), 5 days (fraction); higher = more cells survive
[1] = compound: COc1cc(-c2nn([C@H]3CC[C@H](N4CCN(C(C)=O)CC4)CC3)c3ncnc(N)c23)ccc1NC(=O)c1cc2ccccc2n1C + C[C@@H](Oc1cc(-c2cnn(C3CCNCC3)c2)cnc1N)c1c(Cl)ccc(F)c1Cl [Crizotinib] (partner 1 µM)
Summary of the method: (§1)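 Relative viability divides the nuclei count in treated wells by that in vehicle wells. Lung cancer cell lines were seeded in 1536-well plates, dosed by pin tool the next day, and fixed and stained after 5 days in one step with final 0.05% Triton X-100, 1% formaldehyde and 1 ug/ml Hoechst. Dosing was a single drug or a fixed anchor-drug dose plus five library-drug doses (not always all listed) in √10 steps, and values are medians of duplicate plates imaged at 4×.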

[2] = compound: COc1cc(-c2nn([C@H]3CC[C@H](N4CCN(C(C)=O)CC4)CC3)c3ncnc(N)c23)ccc1NC(=O)c1cc2ccccc2n1C + Nc1nc2[nH]cc(CCc3ccc(C(=O)N[C@@H](CCC(=O)O)C(=O)O)cc3)c2c(=O)[nH]1 [Pemetrexed] (partner 0.2 µM)
Summary of the method: as §1

[3] = compound: COc1cc(-c2nn([C@H]3CC[C@H](N4CCN(C(C)=O)CC4)CC3)c3ncnc(N)c23)ccc1NC(=O)c1cc2ccccc2n1C + O=C(c1cc(Cc2n[nH]c(=O)c3ccccc23)ccc1F)N1CCN(C(=O)C2CC2)CC1 [Olaparib] (partner 8 µM)
Summary of the method: as §1

[4] = compound: CO[C@@H]1[C@H](N(C)C(=O)c2ccccc2)C[C@H]2O[C@]1(C)n1c3ccccc3c3c4c(c5c6ccccc6n2c5c31)C(=O)NC4 [Midostaurin] + C[C@]1(O)C[C@@H](c2nc(-c3ccc4ccc(-c5ccccc5)nc4c3)c3c(N)nccn32)C1 [Linsitinib] (partner 1 µM)
Summary of the method: as §1

[5] = compound: COc1cc(-c2nn([C@H]3CC[C@H](N4CCN(C(C)=O)CC4)CC3)c3ncnc(N)c23)ccc1NC(=O)c1cc2ccccc2n1C + COc1cccc2cc(-c3nc([C@H]4CC[C@H](C(=O)O)CC4)n4ncnc(N)c34)[nH]c12 [OSI-027] (partner 0.5 µM)
Summary of the method: as §1

Cell Line: COR-L 105
- relative viability ([1]; first compound 0.0128 µM): 0.771
- relative viability ([1]; first compound 0.04048 µM): 0.864
- relative viability ([1]; first compound 0.128 µM): 0.594
- relative viability ([1]; first compound 1.28 µM): 0.678
- relative viability ([2]; first compound 0.0128 µM): 1.08
- relative viability ([2]; first compound 0.04048 µM): 1.11
- relative viability ([2]; first compound 0.128 µM): 1.1
- relative viability ([2]; first compound 1.28 µM): 0.836
- relative viability ([3]; first compound 0.0128 µM): 0.798
- relative viability ([3]; first compound 0.04048 µM): 0.676
- relative viability ([3]; first compound 0.128 µM): 0.594
- relative viability ([3]; first compound 1.28 µM): 0.478
- relative viability ([4]; first compound 0.01 µM): 0.818
- relative viability ([4]; first compound 0.03162 µM): 0.922
- relative viability ([4]; first compound 0.1 µM): 0.766
- relative viability ([4]; first compound 0.3162 µM): 0.727
- relative viability ([5]; first compound 0.0128 µM): 0.59
- relative viability ([5]; first compound 0.04048 µM): 0.799
- relative viability ([5]; first compound 0.128 µM): 0.636
- relative viability ([5]; first compound 1.28 µM): 0.343

Cell Line: RERF-LC-KJ
- relative viability ([1]; first compound 0.0128 µM): 0.897
- relative viability ([1]; first compound 0.04048 µM): 0.914
- relative viability ([1]; first compound 0.128 µM): 0.742
- relative viability ([1]; first compound 1.28 µM): 0.846
- relative viability ([2]; first compound 0.0128 µM): 0.489
- relative viability ([2]; first compound 0.04048 µM): 0.494
- relative viability ([2]; first compound 0.128 µM): 0.47
- relative viability ([2]; first compound 1.28 µM): 0.46
- relative viability ([3]; first compound 0.0128 µM): 1.03
- relative viability ([3]; first compound 0.04048 µM): 0.946
- relative viability ([3]; first compound 0.128 µM): 0.928
- relative viability ([3]; first compound 1.28 µM): 0.941
- relative viability ([4]; first compound 0.01 µM): 0.945
- relative viability ([4]; first compound 0.03162 µM): 0.868
- relative viability ([4]; first compound 0.1 µM): 0.89
- relative viability ([4]; first compound 0.3162 µM): 0.926
- relative viability ([5]; first compound 0.0128 µM): 0.634
- relative viability ([5]; first compound 0.04048 µM): 0.536
- relative viability ([5]; first compound 0.128 µM): 0.581
- relative viability ([5]; first compound 1.28 µM): 0.569

Cell Line: LXF-289
- relative viability ([1]; first compound 0.0128 µM): 0.863
- relative viability ([1]; first compound 0.04048 µM): 0.794
- relative viability ([1]; first compound 0.128 µM): 0.864
- relative viability ([1]; first compound 1.28 µM): 0.98
- relative viability ([2]; first compound 0.0128 µM): 1.01
- relative viability ([2]; first compound 0.04048 µM): 0.881
- relative viability ([2]; first compound 0.128 µM): 0.901
- relative viability ([2]; first compound 1.28 µM): 1.16
- relative viability ([3]; first compound 0.0128 µM): 1.17
- relative viability ([3]; first compound 0.04048 µM): 1.08
- relative viability ([3]; first compound 0.128 µM): 1.11
- relative viability ([3]; first compound 1.28 µM): 0.982
- relative viability ([4]; first compound 0.01 µM): 1
- relative viability ([4]; first compound 0.03162 µM): 0.967
- relative viability ([4]; first compound 0.1 µM): 0.866
- relative viability ([4]; first compound 0.3162 µM): 0.953
- relative viability ([5]; first compound 0.0128 µM): 0.875
- relative viability ([5]; first compound 0.04048 µM): 0.76
- relative viability ([5]; first compound 0.128 µM): 0.71
- relative viability ([5]; first compound 1.28 µM): 0.652

Cell Line: PC-14
- relative viability ([1]; first compound 0.0128 µM): 0.941
- relative viability ([1]; first compound 0.04048 µM): 0.98
- relative viability ([1]; first compound 0.128 µM): 0.965
- relative viability ([1]; first compound 1.28 µM): 0.87
- relative viability ([2]; first compound 0.0128 µM): 0.136
- relative viability ([2]; first compound 0.04048 µM): 0.118
- relative viability ([2]; first compound 0.128 µM): 0.136
- relative viability ([2]; first compound 1.28 µM): 0.133
- relative viability ([3]; first compound 0.0128 µM): 0.231
- relative viability ([3]; first compound 0.04048 µM): 0.349
- relative viability ([3]; first compound 0.128 µM): 0.283
- relative viability ([3]; first compound 1.28 µM): 0.343
- relative viability ([4]; first compound 0.01 µM): 0.995
- relative viability ([4]; first compound 0.03162 µM): 0.943
- relative viability ([4]; first compound 0.1 µM): 0.996
- relative viability ([4]; first compound 0.3162 µM): 0.975
- relative viability ([5]; first compound 0.0128 µM): 0.896
- relative viability ([5]; first compound 0.04048 µM): 1.07
- relative viability ([5]; first compound 0.128 µM): 0.798
- relative viability ([5]; first compound 1.28 µM): 0.913

Cell Line: NCI-H650
- relative viability ([1]; first compound 0.0128 µM): 0.665
- relative viability ([1]; first compound 0.04048 µM): 0.716
- relative viability ([1]; first compound 0.128 µM): 0.603
- relative viability ([1]; first compound 1.28 µM): 0.739
- relative viability ([2]; first compound 0.0128 µM): 1.09
- relative viability ([2]; first compound 0.04048 µM): 1.05
- relative viability ([2]; first compound 0.128 µM): 1.02
- relative viability ([2]; first compound 1.28 µM): 0.897
- relative viability ([3]; first compound 0.0128 µM): 0.418
- relative viability ([3]; first compound 0.04048 µM): 0.453
- relative viability ([3]; first compound 0.128 µM): 0.407
- relative viability ([3]; first compound 1.28 µM): 0.468
- relative viability ([4]; first compound 0.01 µM): 0.715
- relative viability ([4]; first compound 0.03162 µM): 0.862
- relative viability ([4]; first compound 0.1 µM): 0.76
- relative viability ([4]; first compound 0.3162 µM): 0.508
- relative viability ([5]; first compound 0.0128 µM): 0.56
- relative viability ([5]; first compound 0.04048 µM): 0.798
- relative viability ([5]; first compound 0.128 µM): 0.524
- relative viability ([5]; first compound 1.28 µM): 0.458

Cell Line: NCI-H1666
- relative viability ([1]; first compound 0.0128 µM): 0.909
- relative viability ([1]; first compound 0.04048 µM): 0.904
- relative viability ([1]; first compound 0.128 µM): 0.97
- relative viability ([1]; first compound 1.28 µM): 0.827
- relative viability ([2]; first compound 0.0128 µM): 0.881
- relative viability ([2]; first compound 0.04048 µM): 0.803
- relative viability ([2]; first compound 0.128 µM): 0.84
- relative viability ([2]; first compound 1.28 µM): 0.847
- relative viability ([3]; first compound 0.0128 µM): 0.763
- relative viability ([3]; first compound 0.04048 µM): 0.793
- relative viability ([3]; first compound 0.128 µM): 0.793
- relative viability ([3]; first compound 1.28 µM): 0.827
- relative viability ([4]; first compound 0.01 µM): 0.897
- relative viability ([4]; first compound 0.03162 µM): 0.916
- relative viability ([4]; first compound 0.1 µM): 0.77
- relative viability ([4]; first compound 0.3162 µM): 0.822
- relative viability ([5]; first compound 0.0128 µM): 0.795
- relative viability ([5]; first compound 0.04048 µM): 0.789
- relative viability ([5]; first compound 0.128 µM): 0.764
- relative viability ([5]; first compound 1.28 µM): 0.784

Cell Line: NCI-H2085
- relative viability ([1]; first compound 0.0128 µM): 0.86
- relative viability ([1]; first compound 0.04048 µM): 0.912
- relative viability ([1]; first compound 0.128 µM): 0.977
- relative viability ([1]; first compound 1.28 µM): 0.695
- relative viability ([2]; first compound 0.0128 µM): 0.915
- relative viability ([2]; first compound 0.04048 µM): 0.86
- relative viability ([2]; first compound 0.128 µM): 0.81
- relative viability ([2]; first compound 1.28 µM): 0.539
- relative viability ([3]; first compound 0.0128 µM): 0.817
- relative viability ([3]; first compound 0.04048 µM): 0.891
- relative viability ([3]; first compound 0.128 µM): 0.804
- relative viability ([3]; first compound 1.28 µM): 0.653
- relative viability ([4]; first compound 0.01 µM): 0.842
- relative viability ([4]; first compound 0.03162 µM): 0.865
- relative viability ([4]; first compound 0.1 µM): 0.801
- relative viability ([4]; first compound 0.3162 µM): 0.768
- relative viability ([5]; first compound 0.0128 µM): 0.716
- relative viability ([5]; first compound 0.04048 µM): 0.593
- relative viability ([5]; first compound 0.128 µM): 0.774
- relative viability ([5]; first compound 1.28 µM): 0.519

Cell Line: NCI-H1734
- relative viability ([1]; first compound 0.0128 µM): 0.745
- relative viability ([1]; first compound 0.04048 µM): 0.596
- relative viability ([1]; first compound 0.128 µM): 0.669
- relative viability ([1]; first compound 1.28 µM): 0.56
- relative viability ([2]; first compound 0.0128 µM): 0.432
- relative viability ([2]; first compound 0.04048 µM): 0.391
- relative viability ([2]; first compound 0.128 µM): 0.406
- relative viability ([2]; first compound 1.28 µM): 0.432
- relative viability ([3]; first compound 0.0128 µM): 0.621
- relative viability ([3]; first compound 0.04048 µM): 0.562
- relative viability ([3]; first compound 0.128 µM): 0.649
- relative viability ([3]; first compound 1.28 µM): 0.539
- relative viability ([4]; first compound 0.01 µM): 0.832
- relative viability ([4]; first compound 0.03162 µM): 0.803
- relative viability ([4]; first compound 0.1 µM): 0.728
- relative viability ([4]; first compound 0.3162 µM): 0.928
- relative viability ([5]; first compound 0.0128 µM): 0.659
- relative viability ([5]; first compound 0.04048 µM): 0.551
- relative viability ([5]; first compound 0.128 µM): 0.613
- relative viability ([5]; first compound 1.28 µM): 0.485
